Source: publication PMC10846046, “The mechanism of action of auranofin analogs in B. cenocepacia revealed by chemogenomic profiling” (Microbiology Spectrum, 2024)

Columns and labels:
[1] = target: T1, TrxB (thioredoxin reductase) (Burkholderia cenocepacia, UniProt B4EBR9); assay: DTNB reduction, absorbance at […] nm; assay type: biochemical
T1 construct: full gene in pET24b+, C-terminal 6xHis tag kept, E. coli BL21(DE3); Ni-NTA and size exclusion

[2] = target: T2, GOR (glutathione reductase) (Burkholderia cenocepacia, UniProt B4E8M8); assay: NADPH consumption, absorbance at […] nm; assay type: biochemical; details: GSSG as electron acceptor
T2 construct: full gene in pET-22+, C-terminal 6xHis tag kept, E. coli BL21(DE3)-Gold; purified as TrxB
T2 sequence (B4E8M8 1-451): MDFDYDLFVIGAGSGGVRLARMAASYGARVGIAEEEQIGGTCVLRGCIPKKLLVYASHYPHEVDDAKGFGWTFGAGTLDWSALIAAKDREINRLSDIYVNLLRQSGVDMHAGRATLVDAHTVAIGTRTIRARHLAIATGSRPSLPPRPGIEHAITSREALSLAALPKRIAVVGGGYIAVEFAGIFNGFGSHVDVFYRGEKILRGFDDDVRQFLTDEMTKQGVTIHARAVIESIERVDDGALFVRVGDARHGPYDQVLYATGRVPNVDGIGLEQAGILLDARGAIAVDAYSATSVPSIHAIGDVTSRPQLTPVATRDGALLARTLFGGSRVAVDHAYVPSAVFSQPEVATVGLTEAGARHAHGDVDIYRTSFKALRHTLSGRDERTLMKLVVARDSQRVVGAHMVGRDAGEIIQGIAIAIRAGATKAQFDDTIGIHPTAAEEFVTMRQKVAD

T1 sequence (B4EBR9 1-320): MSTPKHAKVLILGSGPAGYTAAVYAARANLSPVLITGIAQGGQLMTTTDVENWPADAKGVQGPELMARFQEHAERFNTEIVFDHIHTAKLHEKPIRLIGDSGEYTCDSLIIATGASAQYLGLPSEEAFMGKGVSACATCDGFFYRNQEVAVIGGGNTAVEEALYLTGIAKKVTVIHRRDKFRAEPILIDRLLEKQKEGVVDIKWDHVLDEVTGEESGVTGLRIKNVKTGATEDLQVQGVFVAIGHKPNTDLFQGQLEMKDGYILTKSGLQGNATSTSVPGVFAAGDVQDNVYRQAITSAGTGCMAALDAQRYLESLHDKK

Row | Structure (SMILES) | DTNB reduction, absorbance at 412 nm ([1]; NADPH as electron source) | DTNB reduction, absorbance at 412 nm ([1]; DTNB as electron acceptor) | NADPH consumption, absorbance at 340 nm [2]
1 | O=C(O)c1cc(SSc2ccc([N+](=O)[O-])c(C(=O)O)c2)ccc1[N+](=O)[O-] [DTNB] | in the presence of substrate DTNB is reduced to TNB, with NADPH as a source | – | –
2 | NC(=O)C1=CN([C@@H]2O[C@H](COP(=O)(O)OP(=O)(O)OC[C@H]3O[C@@H](n4cnc5c(N)ncnc54)[C@H](OP(=O)(O)O)[C@@H]3O)[C@@H](O)[C@H]2O)C=CC1 [NADPH] | – | in the presence of substrate DTNB is reduced to TNB, with NADPH as a source | oxidized glutathione is reduced to reduced glutathione, with NADPH as a source of electrons
